Where two headings read alike, the source gives them in different places.
Assay: Phase 1 single ascending dose (SAD) pharmacokinetics in healthy volunteers
Type: in vivo, human
Conditions: for Vd/F: read-out: Vz/F
Procedure: Study design: A phase 1, randomized, double blind, placebo-controlled, single-center clinical study in 33 male healthy volunteers (HV) (19-54 years, 63.2-95.7 Kg) was conducted with leriglitazone HCl and divided in two parts: a single ascending dose (SAD) with three dose levels (30, 90 and 270 mg) in fasted conditions, followed with two dose levels (90 and 270 mg) in fed conditions; a multiple ascending dose (MAD) with a double-blind, parallel-design with two dose levels (135 and 270 mg) for 8 days and a separate cohort of subjects in an open-label parallel design with two dose levels (135 and 270 mg) including cerebrospinal fluid (CSF) collection on day 8. In the fasted conditions a fasting period of at least 4 hours was required before obtaining plasma samples. The food effect (FE) was assessed by comparing fasted with fed conditions (dosing after a high-fat breakfast per FDA definition with a calculated caloric content of 918 kcal). In the MAD part (fed) the medication was taken before a normal breakfast. Leriglitazone HCl was supplied by ChemConnection and an oral suspension of leriglitazone (20% w/v kleptose, 2% ethanol in 100 mM phosphate buffer pH=7.8) at 6 mg/ml was used in the study.
Blood, Urine and CSF sampling: In the SAD, blood samples were drawn at the following time points: pre-dose and 0.25, 0.5, 0.75, 1, 1.5, 2, 2.5, 3, 4, 5, 6, 8, 10, 12, 16, 24, 36, 48, 72, 96 and 120 hours post-dose. Urine was collected at pre-dose (within 12 hours prior to dosing) and over 0-6, 6-12, 12-24, 24-36, 36-48 hours post-dose collection intervals. In the MAD, blood samples were collected on day 1 at pre-dose and 0.25, 0.5, 0.75, 1, 1.5, 2, 2.5, 3, 4, 5, 6, 8, 10, 12, and 16 hours post-dose and at pre-dose and at 4 hours post-dose on day 2 to day 7, and on day 8 at pre-dose and 0.25, 0.5, 0.75, 1, 1.5, 2, 2.5, 3, 4, 5, 6, 8, 10, 12, 16, 24, 36, 48, 72, 96 and 120 hours post-dose. CSF were taken on day −1 and on day 8, at 4 hours post-dose.
Pharmacokinetic parameter calculation: PK parameters (Cmax, Tmax, t1/2, AUC0-t, CL/F, Vz/F, AUC0-t, RAUC, RCmax) were estimated using non-compartmental analysis (NCA) (Phoenix WinNonlin® Version 6.3).
Statistical analysis: Descriptive statistics for all relevant PK parameters: n, mean, minimum, median, maximum, geometric mean, and coefficient of variation (CV %); analysis of variance on Cmax and AUC to determine dose proportionality and food effect (FE).

Ka (SAD 270 mg Fed, estimated): 0.49 (CV: 9%) 1/h
CL/F (SAD 270 mg fasted, n = 5, geometric mean (CV %)): 0.731 (16.2) L/h
CL/F (SAD 270 mg fed, n = 5, geometric mean (CV %)): 0.733 (17.8) L/h
food effect on overall exposure (SAD fed vs fasted, food lowered Cmax and prolonged Tmax): overall exposure was not affected
leriglitazone converted to M3 (from individual phase 1 plasma PK data): up to 51%
Vd (male, human, plasma, oral, 30 mg, SAD 30 mg Fasted, NCA estimate, per kg body weight, read-out: Vss): 0.29 L/kg
Vd (male, human, plasma, oral, 30 mg, SAD 30 mg Fasted, NCA estimate, read-out: Vss): 23.1 L
Tmax (male, human, plasma, oral, 30 mg, SAD 30 mg fasted, n = 6, Median, read-out: Tmax): 0.63 h
Vd/F (male, human, plasma, oral, 30 mg, SAD 30 mg fasted, n = 6, geometric mean (CV %)): 23.2 L
AUC (male, human, plasma, oral, 30 mg, SAD 30 mg fasted, n = 6, geometric mean, read-out: AUC): 44.2 µg·h/mL
Cmax (male, human, plasma, oral, 30 mg, SAD 30 mg fasted, n = 6, plasma total, geometric mean (CV %), read-out: Cmax): 1700 ng/mL
AUC (male, human, plasma, oral, 30 mg, single dose 30 mg Fasted, read-out: AUC, Observed): 44.2 µg·h/mL
Cmax (male, human, plasma, oral, 30 mg, single dose 30 mg Fasted, read-out: Cmax, Observed): 1700 ng/mL
Tmax (male, human, plasma, oral, 30 mg, single dose 30 mg Fasted, read-out: Tmax, Observed): 0.63 h
Vd (male, human, plasma, oral, 90 mg, SAD 90 mg Fasted, NCA estimate, per kg body weight, read-out: Vss): 0.31 L/kg
Vd (male, human, plasma, oral, 90 mg, SAD 90 mg Fasted, NCA estimate, read-out: Vss): 25.2 L
Vd (male, human, plasma, oral, 90 mg, SAD 90 mg Fed, NCA estimate, per kg body weight, read-out: Vss): 0.35 L/kg
Vd (male, human, plasma, oral, 90 mg, SAD 90 mg Fed, NCA estimate, read-out: Vss): 28.1 L
Tmax (male, human, plasma, oral, 90 mg, SAD 90 mg fasted, n = 6, Median, read-out: Tmax): 0.88 h
AUC(0-t) (male, human, plasma, oral, 90 mg, SAD 90 mg fasted, n = 6, geometric mean): 117 µg·h/mL
Vd/F (male, human, plasma, oral, 90 mg, SAD 90 mg fasted, n = 6, geometric mean (CV %)): 26.1 L
AUC (male, human, plasma, oral, 90 mg, SAD 90 mg fasted, n = 6, geometric mean, read-out: AUC): 121 µg·h/mL
Cmax (male, human, plasma, oral, 90 mg, SAD 90 mg fasted, n = 6, plasma total, geometric mean (CV %), read-out: Cmax): 4430 ng/mL
Tmax (male, human, plasma, oral, 90 mg, SAD 90 mg fed, n = 3, Median, read-out: Tmax): 3 h
AUC(0-t) (male, human, plasma, oral, 90 mg, SAD 90 mg fed, n = 3, geometric mean): 116 µg·h/mL
Vd/F (male, human, plasma, oral, 90 mg, SAD 90 mg fed, n = 3, geometric mean (CV %)): 27.8 L
AUC (male, human, plasma, oral, 90 mg, SAD 90 mg fed, n = 3, geometric mean, read-out: AUC): 121 µg·h/mL
Cmax (male, human, plasma, oral, 90 mg, SAD 90 mg fed, n = 3, plasma total, geometric mean (CV %), read-out: Cmax): 3170 ng/mL
AUC (male, human, plasma, oral, 90 mg, single dose 90 mg Fasted, read-out: AUC, Observed): 121 µg·h/mL
Cmax (male, human, plasma, oral, 90 mg, single dose 90 mg Fasted, read-out: Cmax, Observed): 4430 ng/mL
Tmax (male, human, plasma, oral, 90 mg, single dose 90 mg Fasted, read-out: Tmax, Observed): 0.88 h
AUC (male, human, plasma, oral, 90 mg, single dose 90 mg Fed, read-out: AUC, Observed): 121 µg·h/mL
Cmax (male, human, plasma, oral, 90 mg, single dose 90 mg Fed, read-out: Cmax, Observed): 3170 ng/mL
Tmax (male, human, plasma, oral, 90 mg, single dose 90 mg Fed, read-out: Tmax, Observed): 3 h
Vd (male, human, plasma, oral, 270 mg, SAD 270 mg Fasted, NCA estimate, per kg body weight, read-out: Vss): 0.27 L/kg
Vd (male, human, plasma, oral, 270 mg, SAD 270 mg Fasted, NCA estimate, read-out: Vss): 22.7 L
Vd (male, human, plasma, oral, 270 mg, SAD 270 mg Fed, NCA estimate, per kg body weight, read-out: Vss): 0.3 L/kg
Vd (male, human, plasma, oral, 270 mg, SAD 270 mg Fed, NCA estimate, read-out: Vss): 24.4 L
Tmax (male, human, plasma, oral, 270 mg, SAD 270 mg fasted, n = 5, Median, read-out: Tmax): 1.5 h
Vd/F (male, human, plasma, oral, 270 mg, SAD 270 mg fasted, n = 5, geometric mean (CV %)): 24 L
Tmax (male, human, plasma, oral, 270 mg, SAD 270 mg fed, n = 5, Median, read-out: Tmax): 4 h
AUC(0-t) (male, human, plasma, oral, 270 mg, SAD 270 mg fed, n = 5, geometric mean): 357 µg·h/mL
Vd/F (male, human, plasma, oral, 270 mg, SAD 270 mg fed, n = 5, geometric mean (CV %)): 24.9 L
AUC (male, human, plasma, oral, 270 mg, SAD 270 mg fed, n = 5, geometric mean, read-out: AUC): 368 µg·h/mL
Cmax (male, human, plasma, oral, 270 mg, SAD 270 mg fed, n = 5, plasma total, geometric mean (CV %), read-out: Cmax): 11500 ng/mL
Vd (male, human, plasma, oral, 270 mg, SAD Fasted doses 30, 90, 270 mg, NCA estimate, read-out: Vss, Mean): 0.29 L/kg
Vd (male, human, plasma, oral, 270 mg, SAD Fed doses 90, 270 mg, NCA estimate, read-out: Vss, Mean): 0.32 L/kg
Tmax (male, human, plasma, oral, 270 mg, SAD fasting conditions, 30, 90 and 270 mg, read-out: Tmax, range): 0.25 to 2.5 h
Tmax (male, human, plasma, oral, 270 mg, SAD fed conditions, 90 and 270 mg, read-out: Tmax): 3 to 6 h
AUC (male, human, plasma, oral, 270 mg, single dose 270 mg Fasted, read-out: AUC, Observed): 369 µg·h/mL
Cmax (male, human, plasma, oral, 270 mg, single dose 270 mg Fasted, read-out: Cmax, Observed): 13400 ng/mL
Tmax (male, human, plasma, oral, 270 mg, single dose 270 mg Fasted, read-out: Tmax, Observed): 1.5 h
AUC (male, human, plasma, oral, 270 mg, single dose 270 mg Fed, read-out: AUC, Observed): 368 µg·h/mL
Cmax (male, human, plasma, oral, 270 mg, single dose 270 mg Fed, read-out: Cmax, Observed): 11500 ng/mL
Tmax (male, human, plasma, oral, 270 mg, single dose 270 mg Fed, read-out: Tmax, Observed): 4 h
Vd (male, human, plasma, oral, PBPK model input, estimated from phase 1 SAD data, read-out: Vss): 0.29 L/kg
half-life (male, human, plasma, oral, SAD, read-out: Half-lives): 23 to 24 h
CL renal (male, human, urine, oral, PBPK model input): 0.55 mL/min
Structure (SMILES): CC(O)c1ccc(CCOc2ccc(CC3SC(=O)NC3=O)cc2)nc1 (centres unmarked) [Leriglitazone, 5-[[4-[2-[5-(1-hydroxyethyl)pyridin-2-yl]ethoxy]phenyl]methyl]-1,3-thiazolidine-2,4-dione]
dose proportionality of AUC (SAD 30, 90 and 270 mg): AUC increased proportionally with the dose

Source: patent publication US20260207570A1, “OPTIMIZED DOSING OF LERIGLITAZONE” (MINORYX THERAPEUTICS S.L., priority 2022, published 2026)
